Laboratory results: US8962032B2, “Modulator” (The Queen's University of Belfast, priority 2009, dated 2015)

Test system: C57bl/6 bone marrow derived macrophages
Assay: LPS-induced TNFα and IL-6 in C57bl/6 BMDM with controls
Type: cell-based
Conditions: C57bl/6 BMDM re-stimulated with 1 ng/ml LPS ± 25 μg/ml nanoparticles or controls
Experimental: FIG. 9 illustrates reduction of TNFα and IL-6 production from C57bl/6 bone marrow derived macrophages (BMDM) incubated with LPS and α2,8 sialic acid conjugated PLGA nanoparticles. The BMDM were stimulated with 1 ng/ml LPS overnight to up-regulate Siglec-E. Cells were washed twice in serum-free DMEM prior to resting for 2 hr. Cells were re-stimulated with 1 ng/ml LPS±α2,8 sialic acid conjugated PLGA nanoparticles (NP) or appropriate controls—Unconjugated (nude) NP, Sialic acid washed, but unconjugated NP, Sialic acid at same concentration as NP or nanoparticles conjugated to the non-Siglec binding glucosamine. TNFα and IL-6 was measured by ELISA. One way ANOVA was used to determine significance.
4×10^4/well C57bl/6 bone marrow derived macrophages were stimulated with 1 ng/ml LPS overnight to up-regulate Siglec-E. Cells were washed twice in serum-free DMEM prior to resting for 2 hr. The results of cells re-stimulated with 1 ng/ml LPS±α2,8 sialic acid conjugated PLGA nanoparticles (NP) or appropriate controls—Unconjugated (nude) nanoparticles, Sialic acid washed—but unconjugated nanoparticles, Sialic acid at same concentration as nanoparticles or nanoparticles conjugated to the non-Siglec binding glucosamine are shown. TNFα and IL-6 was measured by ELISA. One way ANOVA with post-hoc Tukey test was used to determine significance. P=0.001.

## alpha 2-8 diacetylneuraminic acid [sialic acid]
  IL-6 (ELISA): insufficient to cause the effect observed
  TNFα (ELISA): insufficient to cause the effect observed
